This is an account of results in article PMC12621043, “Un-LOK-ing a New Approach for Conformational Selective Targeting of STK10 (LOK)” (ACS Medicinal Chemistry Letters, 2025).

The target in assay [1] is T1, BMP2KA (Homo sapiens, UniProt Q9NSY1).
T1 construct: purchased in-house DSF kinase panel (SGC-style construct names; the trailing letter is the construct ID)
As to the kind of experiment: DSF Tm panel. In kind it is binding. To be noted: 10 μM compound.

Assay [2] addresses T2, STK4 (STK4A) (Homo sapiens, UniProt Q13043).
T2 construct: purchased in-house DSF kinase panel (SGC-style construct names; the trailing letter is the construct ID)
T2 sequence (Q13043 1-311): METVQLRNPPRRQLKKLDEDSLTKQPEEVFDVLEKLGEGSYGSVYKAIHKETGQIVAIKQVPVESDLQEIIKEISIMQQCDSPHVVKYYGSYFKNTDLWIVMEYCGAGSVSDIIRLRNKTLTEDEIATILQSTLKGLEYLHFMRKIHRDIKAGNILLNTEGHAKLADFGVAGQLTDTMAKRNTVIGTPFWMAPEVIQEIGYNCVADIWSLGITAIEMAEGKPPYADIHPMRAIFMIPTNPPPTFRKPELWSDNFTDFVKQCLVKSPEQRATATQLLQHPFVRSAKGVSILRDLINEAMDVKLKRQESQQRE
Description: DSF Tm panel. In kind it is binding. Conditions: 10 μM compound.

Assay [3] concerns the target T3, FGFR2A (Homo sapiens, UniProt P21802).
T3 construct: purchased in-house DSF kinase panel (SGC-style construct names; the trailing letter is the construct ID)
Description: DSF Tm panel. Format: binding. Conditions: 10 μM compound.

In assay [4] the target is T4, DYRK1AA (Homo sapiens, UniProt Q13627).
T4 construct: purchased in-house DSF kinase panel (SGC-style construct names; the trailing letter is the construct ID)
Description: DSF Tm panel. Format: binding. To be noted: 10 μM compound.

Assay [5] addresses T5, DAPK3 (DAPK3A) (Homo sapiens, UniProt O43293).
T5 construct: purchased in-house DSF kinase panel (SGC-style construct names; the trailing letter is the construct ID)
As to the kind of experiment: DSF Tm panel. Format: binding. Conditions: 10 μM compound.

Assay [6] addresses T6, FESA (Homo sapiens, UniProt P07332).
T6 construct: purchased in-house DSF kinase panel (SGC-style construct names; the trailing letter is the construct ID)
As to the kind of experiment: DSF Tm panel. To be noted: 10 μM compound. Format: binding.

The target of assay [7] is T7, MAP3K5A (Homo sapiens, UniProt Q99683).
T7 construct: purchased in-house DSF kinase panel (SGC-style construct names; the trailing letter is the construct ID)
Description: DSF Tm panel. In kind it is binding. Conditions: 10 μM compound.

For assay [8], the target named is T8, MARK4A (Homo sapiens, UniProt Q96L34).
T8 construct: purchased in-house DSF kinase panel (SGC-style construct names; the trailing letter is the construct ID)
As to the kind of experiment: DSF Tm panel. In kind it is binding. Conditions: 10 μM compound.

Assay [9] deals with RPS6KA1A. Description: DSF Tm panel. In kind it is binding. Conditions: 10 μM compound.
Assay [10] addresses T9, PIM1 (PIM1A) (Homo sapiens, UniProt P11309).
T9 construct: purchased in-house DSF kinase panel (SGC-style construct names; the trailing letter is the construct ID)
Description: DSF Tm panel. Format: binding. Conditions: 10 μM compound.

Assay [11] concerns the target T10, DCAMKL1A (Homo sapiens, UniProt O15075).
T10 construct: purchased in-house DSF kinase panel (SGC-style construct names; the trailing letter is the construct ID)
T10 sequence (O15075 372-649): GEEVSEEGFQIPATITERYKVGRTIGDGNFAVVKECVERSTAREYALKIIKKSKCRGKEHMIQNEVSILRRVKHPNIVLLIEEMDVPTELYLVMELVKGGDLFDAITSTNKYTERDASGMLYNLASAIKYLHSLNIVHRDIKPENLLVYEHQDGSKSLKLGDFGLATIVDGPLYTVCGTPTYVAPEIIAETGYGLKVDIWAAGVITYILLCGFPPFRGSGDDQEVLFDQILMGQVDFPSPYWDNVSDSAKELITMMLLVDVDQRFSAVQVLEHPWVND
As to the kind of experiment: DSF Tm panel. Format: binding. Conditions: 10 μM compound.

In assay [12] the target is T11, EPHA2 (EPHA2A) (Homo sapiens, UniProt P29317).
T11 construct: purchased in-house DSF kinase panel (SGC-style construct names; the trailing letter is the construct ID)
T11 sequence (P29317 596-900): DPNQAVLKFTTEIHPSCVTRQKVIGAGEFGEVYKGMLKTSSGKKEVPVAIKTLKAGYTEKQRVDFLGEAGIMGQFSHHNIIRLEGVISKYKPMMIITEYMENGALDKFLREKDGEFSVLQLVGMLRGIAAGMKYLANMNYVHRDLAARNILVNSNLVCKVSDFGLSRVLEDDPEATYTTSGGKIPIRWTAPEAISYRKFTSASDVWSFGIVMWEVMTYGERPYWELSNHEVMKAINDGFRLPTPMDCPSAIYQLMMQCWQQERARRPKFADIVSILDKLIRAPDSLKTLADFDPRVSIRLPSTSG
As to the kind of experiment: DSF Tm panel. Format: binding. Conditions: 10 μM compound.

Assay [13] concerns the target T12, MARK3A (Homo sapiens, UniProt P27448).
T12 construct: purchased in-house DSF kinase panel (SGC-style construct names; the trailing letter is the construct ID)
Description: DSF Tm panel. In kind it is binding. To be noted: 10 μM compound.

The target in assay [14] is T13, CAMK2DA (Homo sapiens, UniProt Q13557).
T13 construct: purchased in-house DSF kinase panel (SGC-style construct names; the trailing letter is the construct ID)
Description: DSF Tm panel. In kind it is binding. Conditions: 10 μM compound.

For assay [15], the target named is T14, SRPK1A (Homo sapiens, UniProt Q96SB4).
T14 construct: purchased in-house DSF kinase panel (SGC-style construct names; the trailing letter is the construct ID)
As to the kind of experiment: DSF Tm panel. Format: binding. Conditions: 10 μM compound.

In assay [16] the target is T15, MAPK1A (Homo sapiens, UniProt P28482).
T15 construct: purchased in-house DSF kinase panel (SGC-style construct names; the trailing letter is the construct ID)
Description: DSF Tm panel. Format: binding. To be noted: 10 μM compound.

The target of assay [17] is T16, CDKL1A (Homo sapiens, UniProt Q00532).
T16 construct: purchased in-house DSF kinase panel (SGC-style construct names; the trailing letter is the construct ID)
Description: DSF Tm panel. To be noted: 10 μM compound. Format: binding.

In assay [18] the test system is CDC42BPAA. Description: DSF Tm panel. Format: binding. Conditions: 10 μM compound.
Assay [19] deals with T17, MAPK10A (Homo sapiens, UniProt P53779).
T17 construct: purchased in-house DSF kinase panel (SGC-style construct names; the trailing letter is the construct ID)
As to the kind of experiment: DSF Tm panel. Format: binding. To be noted: 10 μM compound.

Assay [20] deals with T18, VRK1A (Homo sapiens, UniProt Q99986).
T18 construct: purchased in-house DSF kinase panel (SGC-style construct names; the trailing letter is the construct ID)
T18 sequence (Q99986 1-396): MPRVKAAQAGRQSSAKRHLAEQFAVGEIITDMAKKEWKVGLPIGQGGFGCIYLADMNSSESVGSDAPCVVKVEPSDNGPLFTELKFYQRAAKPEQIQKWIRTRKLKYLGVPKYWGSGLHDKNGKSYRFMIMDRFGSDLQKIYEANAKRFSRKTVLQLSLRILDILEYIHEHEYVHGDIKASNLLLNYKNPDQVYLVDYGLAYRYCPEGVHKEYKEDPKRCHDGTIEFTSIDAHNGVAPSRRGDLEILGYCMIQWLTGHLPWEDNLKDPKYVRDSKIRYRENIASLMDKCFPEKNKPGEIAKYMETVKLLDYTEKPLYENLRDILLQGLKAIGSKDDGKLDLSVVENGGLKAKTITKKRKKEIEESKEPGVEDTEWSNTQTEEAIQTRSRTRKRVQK
Description: DSF Tm panel. In kind it is binding. To be noted: 10 μM compound.

Assay [21] addresses T19, MAPK14A (Homo sapiens, UniProt Q16539).
T19 construct: purchased in-house DSF kinase panel (SGC-style construct names; the trailing letter is the construct ID)
As to the kind of experiment: DSF Tm panel. Format: binding. To be noted: 10 μM compound.

For assay [22], the target named is T20, STK10 (Homo sapiens, UniProt O94804).
T20 construct: purchased in-house DSF kinase panel (SGC-style construct names; the trailing letter is the construct ID)
Description: PhosphoSens in vitro activity assay. Conditions: ATP 160 μM. In kind it is biochemical.

For assay [23], the target named is T21, SLK (Homo sapiens, UniProt Q9H2G2). As to the kind of experiment: DSF Tm panel. In kind it is binding. Set-up: purchased in-house DSF kinase panel (SGC-style construct names; the trailing letter is the construct ID). Conditions: 10 μM compound.
For assay [24], the target named is T21, SLK. As to the kind of experiment: NanoBRET target engagement assay. In kind it is cell-based. Details: has a greater impact on the full-length protein than on the kinase domains; host or cells: HEK293T (ATCC CRL-3216). To be noted: HEK293T cells. A general note: In BRET a luciferase serves as donor, and the signal depends on an acceptor being close.

T5 sequence (O43293 whole entry): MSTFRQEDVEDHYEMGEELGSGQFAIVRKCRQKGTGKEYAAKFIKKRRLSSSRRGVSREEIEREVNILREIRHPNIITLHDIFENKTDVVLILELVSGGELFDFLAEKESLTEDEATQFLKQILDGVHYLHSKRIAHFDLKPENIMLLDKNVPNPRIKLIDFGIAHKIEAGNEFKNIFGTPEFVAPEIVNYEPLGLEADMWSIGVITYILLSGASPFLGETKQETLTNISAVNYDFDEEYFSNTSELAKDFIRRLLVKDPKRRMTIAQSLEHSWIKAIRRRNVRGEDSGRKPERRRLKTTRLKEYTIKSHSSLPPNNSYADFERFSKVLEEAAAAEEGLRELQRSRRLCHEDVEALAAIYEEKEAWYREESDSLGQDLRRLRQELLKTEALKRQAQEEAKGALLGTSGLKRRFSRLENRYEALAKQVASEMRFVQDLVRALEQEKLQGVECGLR
T12 sequence (P27448 56-307): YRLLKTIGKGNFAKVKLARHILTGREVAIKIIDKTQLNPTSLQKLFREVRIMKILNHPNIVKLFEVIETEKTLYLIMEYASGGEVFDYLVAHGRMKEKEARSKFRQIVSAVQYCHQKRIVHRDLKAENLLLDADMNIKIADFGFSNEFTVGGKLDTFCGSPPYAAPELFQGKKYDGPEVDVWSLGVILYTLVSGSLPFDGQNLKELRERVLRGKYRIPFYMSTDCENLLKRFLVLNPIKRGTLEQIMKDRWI
T17 sequence (P53779 39-402): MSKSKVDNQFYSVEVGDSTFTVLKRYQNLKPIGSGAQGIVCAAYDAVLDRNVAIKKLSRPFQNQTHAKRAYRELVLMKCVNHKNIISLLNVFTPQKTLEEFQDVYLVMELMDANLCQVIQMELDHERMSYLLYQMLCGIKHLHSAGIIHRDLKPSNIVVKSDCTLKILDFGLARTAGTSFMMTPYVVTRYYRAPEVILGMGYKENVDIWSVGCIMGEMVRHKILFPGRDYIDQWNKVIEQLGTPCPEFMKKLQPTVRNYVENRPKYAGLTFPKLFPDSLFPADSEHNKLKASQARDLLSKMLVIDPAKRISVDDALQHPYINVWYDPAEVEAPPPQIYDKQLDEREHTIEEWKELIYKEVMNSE
T20 sequence (O94804 18-317 limits assumed): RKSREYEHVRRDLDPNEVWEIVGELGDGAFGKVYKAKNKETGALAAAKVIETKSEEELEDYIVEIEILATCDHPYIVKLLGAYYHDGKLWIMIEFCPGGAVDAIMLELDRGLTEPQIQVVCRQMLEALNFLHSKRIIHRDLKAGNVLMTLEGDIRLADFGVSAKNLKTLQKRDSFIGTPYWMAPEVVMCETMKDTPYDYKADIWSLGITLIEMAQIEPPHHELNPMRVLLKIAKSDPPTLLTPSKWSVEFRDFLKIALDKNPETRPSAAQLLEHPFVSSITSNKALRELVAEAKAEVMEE
T1 sequence (Q9NSY1 38-345): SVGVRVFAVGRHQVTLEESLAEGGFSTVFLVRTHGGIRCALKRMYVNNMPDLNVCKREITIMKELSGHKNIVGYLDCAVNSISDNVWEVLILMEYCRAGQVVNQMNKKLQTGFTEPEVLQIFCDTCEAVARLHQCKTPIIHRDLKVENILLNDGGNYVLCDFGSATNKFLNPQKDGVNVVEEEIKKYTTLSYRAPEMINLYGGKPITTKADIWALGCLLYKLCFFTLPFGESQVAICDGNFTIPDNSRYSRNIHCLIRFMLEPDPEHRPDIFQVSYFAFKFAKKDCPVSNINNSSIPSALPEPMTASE
T19 sequence (Q16539 whole entry): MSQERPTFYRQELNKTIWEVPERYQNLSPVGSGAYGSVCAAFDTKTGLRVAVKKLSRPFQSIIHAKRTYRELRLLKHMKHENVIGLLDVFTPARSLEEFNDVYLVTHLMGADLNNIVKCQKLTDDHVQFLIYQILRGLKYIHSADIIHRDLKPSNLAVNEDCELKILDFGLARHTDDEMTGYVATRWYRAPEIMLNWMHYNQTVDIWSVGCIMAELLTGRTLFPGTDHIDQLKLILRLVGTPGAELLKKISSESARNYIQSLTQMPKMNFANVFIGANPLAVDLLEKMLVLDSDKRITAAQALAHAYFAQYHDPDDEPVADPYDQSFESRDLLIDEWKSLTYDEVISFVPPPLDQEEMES
T9 sequence (P11309 whole entry): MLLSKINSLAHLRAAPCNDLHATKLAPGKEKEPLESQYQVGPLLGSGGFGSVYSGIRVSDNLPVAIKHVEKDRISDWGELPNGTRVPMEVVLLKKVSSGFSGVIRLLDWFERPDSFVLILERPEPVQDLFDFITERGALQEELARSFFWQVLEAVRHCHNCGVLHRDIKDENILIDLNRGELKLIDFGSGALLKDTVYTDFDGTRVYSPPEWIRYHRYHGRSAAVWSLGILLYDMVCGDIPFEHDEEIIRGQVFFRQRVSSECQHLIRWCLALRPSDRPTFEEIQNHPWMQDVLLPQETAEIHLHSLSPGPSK
T15 sequence (P28482 whole entry): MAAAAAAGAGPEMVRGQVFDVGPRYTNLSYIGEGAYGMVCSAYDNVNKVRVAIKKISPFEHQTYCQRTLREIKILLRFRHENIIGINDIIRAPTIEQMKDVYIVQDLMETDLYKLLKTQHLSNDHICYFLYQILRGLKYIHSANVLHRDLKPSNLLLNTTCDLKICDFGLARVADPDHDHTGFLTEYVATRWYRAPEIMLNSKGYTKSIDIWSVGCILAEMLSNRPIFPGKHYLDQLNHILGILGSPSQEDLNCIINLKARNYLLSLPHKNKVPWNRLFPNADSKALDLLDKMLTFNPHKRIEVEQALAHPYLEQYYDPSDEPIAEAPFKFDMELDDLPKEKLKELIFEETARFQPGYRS
T16 sequence (Q00532 1-303): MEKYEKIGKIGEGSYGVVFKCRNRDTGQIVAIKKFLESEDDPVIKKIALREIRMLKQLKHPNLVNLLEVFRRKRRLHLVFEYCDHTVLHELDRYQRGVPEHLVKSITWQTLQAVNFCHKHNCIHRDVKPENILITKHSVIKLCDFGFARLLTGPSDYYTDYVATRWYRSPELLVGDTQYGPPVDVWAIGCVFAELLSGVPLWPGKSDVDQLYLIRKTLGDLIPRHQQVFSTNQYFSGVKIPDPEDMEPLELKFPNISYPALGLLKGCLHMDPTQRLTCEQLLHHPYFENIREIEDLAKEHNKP
T7 sequence (Q99683 659-951): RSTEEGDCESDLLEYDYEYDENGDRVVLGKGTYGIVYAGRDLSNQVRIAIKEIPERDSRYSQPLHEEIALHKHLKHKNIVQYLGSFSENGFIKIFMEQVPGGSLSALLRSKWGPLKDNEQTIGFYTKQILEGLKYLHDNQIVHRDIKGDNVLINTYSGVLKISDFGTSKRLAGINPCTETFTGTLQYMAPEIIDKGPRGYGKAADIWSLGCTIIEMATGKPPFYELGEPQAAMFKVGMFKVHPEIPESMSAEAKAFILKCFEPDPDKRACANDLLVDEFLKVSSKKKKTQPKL
T8 sequence (Q96L34 59-310): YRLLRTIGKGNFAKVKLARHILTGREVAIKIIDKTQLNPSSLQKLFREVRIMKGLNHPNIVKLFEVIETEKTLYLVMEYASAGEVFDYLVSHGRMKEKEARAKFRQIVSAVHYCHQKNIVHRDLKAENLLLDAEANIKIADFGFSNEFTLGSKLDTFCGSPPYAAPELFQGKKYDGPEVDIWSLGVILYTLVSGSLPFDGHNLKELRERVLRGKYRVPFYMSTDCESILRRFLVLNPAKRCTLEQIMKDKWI
T13 sequence (Q13557 11-309): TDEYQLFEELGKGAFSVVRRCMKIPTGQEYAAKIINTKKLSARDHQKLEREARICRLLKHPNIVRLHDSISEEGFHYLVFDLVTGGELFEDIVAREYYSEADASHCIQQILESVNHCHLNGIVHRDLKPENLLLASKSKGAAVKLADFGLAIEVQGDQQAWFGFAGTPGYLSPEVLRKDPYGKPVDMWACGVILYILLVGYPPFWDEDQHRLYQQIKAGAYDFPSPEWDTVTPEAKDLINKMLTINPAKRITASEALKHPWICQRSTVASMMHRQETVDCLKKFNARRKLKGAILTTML
T3 sequence (P21802 458-770): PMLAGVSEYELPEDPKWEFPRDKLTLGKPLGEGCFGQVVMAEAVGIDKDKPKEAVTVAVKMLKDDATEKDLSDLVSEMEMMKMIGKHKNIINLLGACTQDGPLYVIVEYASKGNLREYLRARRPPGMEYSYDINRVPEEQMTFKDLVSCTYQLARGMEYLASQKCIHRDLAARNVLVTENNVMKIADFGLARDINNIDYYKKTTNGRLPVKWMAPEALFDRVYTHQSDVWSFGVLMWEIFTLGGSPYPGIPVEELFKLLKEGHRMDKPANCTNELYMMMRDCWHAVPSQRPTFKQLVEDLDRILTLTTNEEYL
T14 sequence (Q96SB4 80-653): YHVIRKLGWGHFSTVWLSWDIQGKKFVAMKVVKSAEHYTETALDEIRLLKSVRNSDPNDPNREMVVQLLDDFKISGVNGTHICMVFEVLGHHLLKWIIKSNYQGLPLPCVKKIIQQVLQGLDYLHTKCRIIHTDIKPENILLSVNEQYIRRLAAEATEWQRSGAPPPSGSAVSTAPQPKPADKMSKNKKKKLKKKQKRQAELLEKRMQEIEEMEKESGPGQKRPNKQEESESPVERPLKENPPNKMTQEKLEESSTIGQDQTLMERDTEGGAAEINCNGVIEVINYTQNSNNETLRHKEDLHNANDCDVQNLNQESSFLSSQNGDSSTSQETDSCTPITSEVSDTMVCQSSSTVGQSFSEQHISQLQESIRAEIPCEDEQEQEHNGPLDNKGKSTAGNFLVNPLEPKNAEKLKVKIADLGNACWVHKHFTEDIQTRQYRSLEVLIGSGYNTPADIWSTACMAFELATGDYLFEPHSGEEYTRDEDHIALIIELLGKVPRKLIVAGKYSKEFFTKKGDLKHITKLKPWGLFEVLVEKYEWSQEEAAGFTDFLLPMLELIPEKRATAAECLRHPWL

With `COc1ccccc1CNC(=O)Nc1ccc2cc1OCCOCCNc1ccn3ncc-2c3n1` [compound 29], the shift in melting temperature (ΔTm) – broadly, the shift of the melting midpoint relative to a reference – at 10 µM in [1] is 8.3 °C; in [2], 2.6 °C; in assay [3], 2.9 °C; in [4], -0.5 °C; in assay [5], 0.5 °C; in assay [6], 2 °C. The thermal shift (ΔTm) at 10 µM was 1 °C in assay [7]; 1.9 °C in assay [8]; 1 °C in assay [10]; 0.9 °C in assay [11]; 0.4 °C in [12]; -0.1 °C in assay [13]. Further, the ΔTm at 10 µM in [14] was found to be 2.1 °C; in [15], 0.2 °C; in assay [16] it was 0.7 °C; in assay [17], 0.2 °C; in assay [19], 0.3 °C; in [20] it was 0 °C. In addition, the results for the shift in melting temperature (ΔTm) at 10 µM in assay [21] and in assay [23] were 0.9 °C and 2.5 °C, respectively. The “ΔTm RPS6KA1A” value in assay [9] is 0,5 °C. For the same molecule, the “ΔTm CDC42BPAA” value in [18] was 0,3 °C. Further, the IC50 (in general, the point on the concentration scale where inhibition reaches its midpoint) in assay [22] came out at 5.2 ± 0.81 µM. For the same molecule, the 50% effective concentration (EC50) – broadly, the midpoint of the concentration-response curve – in assay [24] is > 50 µM.

In the case of `COc1cccc(CNC(=O)Nc2ccc3cc2OCCOCCNc2ccn4ncc-3c4n2)c1` [compound 30], the ΔTm at 10 µM in [1] is 9.8 °C; in assay [2], 3 °C; in assay [3], 3.1 °C; in assay [4], -0.4 °C; in [5], 1.2 °C; in assay [6] it was 1.4 °C. Further, the shift in melting temperature (ΔTm) at 10 µM in assay [7] is 1.5 °C; in [8], 1.5 °C; in [10], 1 °C; in [11] it was 1.2 °C; in assay [12] it was 0.4 °C; in assay [13], -0.3 °C. Further, the shift in melting temperature (ΔTm) at 10 µM came out at 2.3 °C in assay [14]; 0.1 °C in assay [15]; 0.6 °C in [16]; 0.3 °C in assay [17]; 0.5 °C in assay [19]; 0.3 °C in assay [20]. The ΔTm at 10 µM was 0.9 °C in assay [21] and 2.1 °C in [23]. The “ΔTm RPS6KA1A” value in assay [9] was 0,6 °C. Further, the “ΔTm CDC42BPAA” value in assay [18] was 0,2 °C. Further, the IC50 in assay [22] is 6.29 ± 1.49 µM. Besides, the EC50 in assay [24] is > 50 µM.

For the molecule `COc1ccc(CNC(=O)Nc2ccc3cc2OCCOCCNc2ccn4ncc-3c4n2)cc1F` [compound 32], the thermal shift (ΔTm) at 10 µM is 10.9 °C in assay [1]; 4.4 °C in [2]; 2.8 °C in assay [3]; 0.6 °C in assay [4]; 1.2 °C in assay [5]; 0.8 °C in assay [6]. The ΔTm at 10 µM in [7] worked out at 2 °C; in [8], 2.5 °C; in assay [10], 1.7 °C; in [11], 1.6 °C; in assay [12], 0.3 °C; in assay [13], 0.5 °C. Also, the shift in melting temperature (ΔTm) at 10 µM is 2.7 °C in [14]; 0 °C in [15]; 0.7 °C in assay [16]; 0.5 °C in assay [17]; 0.8 °C in assay [19]; 0.2 °C in assay [20]. The ΔTm at 10 µM in assay [21] worked out at 2.4 °C; in [23], 3.6 °C. Further, the “ΔTm RPS6KA1A” value in assay [9] was 0,8 °C. Moreover, the “ΔTm CDC42BPAA” value in assay [18] was 0,1 °C. Half-maximal inhibition in assay [22] (IC50) required 3.33 ± 0.66 µM. In addition, the EC50 in assay [24] is > 50 µM.
